Experimental data reported in ChEMBL document CHEMBL4507276 (2021).

What was measured:
[1] = molecular target: Mitogen-activated protein kinase 1 (Homo sapiens) (UniProt P28482); experiment: MAPK1 Invitrogen selectivity data (BI); settings: Compound concentration 3.0 uM
[2] = molecular target: Casein kinase I isoform alpha (Homo sapiens) (UniProt P48729); experiment: CSNK1A1 Invitrogen selectivity data (BI); settings: Compound concentration 3.0 uM
[3] = molecular target: Tyrosine-protein kinase Fgr (Homo sapiens) (UniProt P09769); experiment: FGR Invitrogen selectivity data (BI); settings: Compound concentration 3.0 uM
[4] = molecular target: STE20-like serine/threonine-protein kinase (Homo sapiens) (UniProt Q9H2G2); experiment: SLK Invitrogen selectivity data (BI); settings: Compound concentration 3.0 uM
[5] = molecular target: Motilin receptor (Homo sapiens) (UniProt O43193); experiment: MOTILINH_AGON Cerep selectivity data (BI); settings: filed as agonist, Compound concentration 20.0 uM
[6] = molecular target: Interleukin-1 receptor-associated kinase 1 (Homo sapiens) (UniProt P51617); experiment: IRAK1 Invitrogen selectivity data (BI); settings: Compound concentration 3.0 uM
[7] = molecular target: Estrogen receptor (Homo sapiens) (UniProt P03372); experiment: ER_ALPHA_AGON Cerep selectivity data (BI); settings: filed as agonist, Compound concentration 20.0 uM
[8] = molecular target: Glutamate receptor ionotropic, NMDA 2A (Rattus norvegicus) (UniProt Q00959); experiment: NMDAPHSI/R Eurofins-Panlabs selectivity data (BI); settings: Compound concentration 10.0 uM
[9] = molecular target: SRSF protein kinase 3 (Homo sapiens) (UniProt Q9UPE1); experiment: STK23 Invitrogen selectivity data (BI); settings: Compound concentration 3.0 uM
[10] = molecular target: D(1A) dopamine receptor (Homo sapiens) (UniProt P21728); experiment: D1/H Cerep selectivity data (BI); settings: filed as antagonist, Compound concentration 20.0 uM
[11] = molecular target: T1, Ephrin type-B receptor 2 (Homo sapiens) (UniProt P29323); experiment: EPHB2 Invitrogen selectivity data (BI); settings: Compound concentration 3.0 uM
T1 sequence (whole entry): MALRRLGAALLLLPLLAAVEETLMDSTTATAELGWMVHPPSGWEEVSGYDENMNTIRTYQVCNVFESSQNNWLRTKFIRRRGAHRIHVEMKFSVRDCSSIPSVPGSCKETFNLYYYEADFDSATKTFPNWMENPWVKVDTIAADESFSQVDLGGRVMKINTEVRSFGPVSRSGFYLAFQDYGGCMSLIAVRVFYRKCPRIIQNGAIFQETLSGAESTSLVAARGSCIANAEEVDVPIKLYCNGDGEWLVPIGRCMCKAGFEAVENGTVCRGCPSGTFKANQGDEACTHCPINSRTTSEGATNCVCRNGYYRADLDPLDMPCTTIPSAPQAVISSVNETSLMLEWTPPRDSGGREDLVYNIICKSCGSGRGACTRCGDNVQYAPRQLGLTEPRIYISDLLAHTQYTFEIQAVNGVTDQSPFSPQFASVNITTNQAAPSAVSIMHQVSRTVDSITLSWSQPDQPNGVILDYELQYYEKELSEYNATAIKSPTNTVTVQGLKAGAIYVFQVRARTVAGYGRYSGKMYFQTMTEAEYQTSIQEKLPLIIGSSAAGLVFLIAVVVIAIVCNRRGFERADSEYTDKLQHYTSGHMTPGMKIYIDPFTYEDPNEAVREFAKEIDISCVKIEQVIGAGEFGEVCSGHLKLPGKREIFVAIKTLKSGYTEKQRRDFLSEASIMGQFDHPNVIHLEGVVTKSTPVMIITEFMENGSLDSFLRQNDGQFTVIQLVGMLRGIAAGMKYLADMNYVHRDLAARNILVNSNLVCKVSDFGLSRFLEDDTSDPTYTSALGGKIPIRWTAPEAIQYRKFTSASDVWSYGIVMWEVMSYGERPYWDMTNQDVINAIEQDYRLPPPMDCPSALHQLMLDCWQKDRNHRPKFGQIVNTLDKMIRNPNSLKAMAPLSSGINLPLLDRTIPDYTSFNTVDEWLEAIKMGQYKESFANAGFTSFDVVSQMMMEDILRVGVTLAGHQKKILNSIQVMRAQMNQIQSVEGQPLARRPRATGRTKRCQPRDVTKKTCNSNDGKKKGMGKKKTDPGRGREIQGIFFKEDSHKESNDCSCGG

[12] = molecular target: Alpha-1D adrenergic receptor (Homo sapiens) (UniProt P25100); settings: Compound concentration 10.0 uM
[13] = molecular target: T2, Serine/threonine-protein kinase D3 (Homo sapiens) (UniProt O94806); experiment: PRKCN Invitrogen selectivity data (BI); settings: Compound concentration 3.0 uM
T2 sequence (whole entry): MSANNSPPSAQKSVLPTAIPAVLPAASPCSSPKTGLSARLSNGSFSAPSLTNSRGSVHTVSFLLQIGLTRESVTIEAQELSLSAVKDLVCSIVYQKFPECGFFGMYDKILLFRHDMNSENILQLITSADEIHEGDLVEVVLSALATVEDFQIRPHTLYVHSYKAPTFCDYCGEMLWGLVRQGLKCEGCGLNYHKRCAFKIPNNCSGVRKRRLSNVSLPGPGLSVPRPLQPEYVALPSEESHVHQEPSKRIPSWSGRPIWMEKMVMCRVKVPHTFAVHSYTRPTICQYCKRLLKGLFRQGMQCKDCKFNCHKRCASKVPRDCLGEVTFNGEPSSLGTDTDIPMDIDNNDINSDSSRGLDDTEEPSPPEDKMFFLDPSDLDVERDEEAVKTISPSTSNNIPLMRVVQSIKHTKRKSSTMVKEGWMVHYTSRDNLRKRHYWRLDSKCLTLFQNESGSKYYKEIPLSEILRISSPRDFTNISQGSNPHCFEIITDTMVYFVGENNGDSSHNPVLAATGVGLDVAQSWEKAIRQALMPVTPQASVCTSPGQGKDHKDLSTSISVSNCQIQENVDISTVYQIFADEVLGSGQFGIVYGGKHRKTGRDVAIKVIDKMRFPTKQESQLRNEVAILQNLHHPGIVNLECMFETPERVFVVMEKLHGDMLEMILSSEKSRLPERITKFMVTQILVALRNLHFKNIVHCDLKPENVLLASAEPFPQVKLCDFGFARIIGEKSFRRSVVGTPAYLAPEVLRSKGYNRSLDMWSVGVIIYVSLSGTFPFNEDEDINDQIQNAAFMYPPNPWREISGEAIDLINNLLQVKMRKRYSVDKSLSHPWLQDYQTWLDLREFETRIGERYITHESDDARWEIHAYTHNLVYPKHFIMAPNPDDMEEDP

[14] = molecular target: C-C chemokine receptor type 2 (Homo sapiens) (UniProt P41597); experiment: CCR2/H AG Cerep selectivity data (BI); settings: filed as agonist, Compound concentration 20.0 uM
[15] = molecular target: Adenosine receptor A2b (Homo sapiens) (UniProt P29275); experiment: A2B/H Cerep selectivity data (BI); settings: Compound concentration 20.0 uM
[16] = test system: Epidermal growth factor receptor (Homo sapiens), P00533 [UNDEFINED MUTATION]; experiment: EGFRT790L858 Invitrogen selectivity data (BI); settings: Compound concentration 3.0 uM
[17] = molecular target: Insulin receptor (Homo sapiens) (UniProt P06213); experiment: IRK(INSR)_CE Cerep selectivity data (BI); settings: Compound concentration 20.0 uM
[18] = molecular target: Serine/threonine-protein kinase PAK 3 (Homo sapiens) (UniProt O75914); experiment: PAK3 Invitrogen selectivity data (BI); settings: Compound concentration 3.0 uM
[19] = molecular target: Alpha-1A adrenergic receptor (Rattus norvegicus) (UniProt P43140); experiment: ALPHA1A/R Eurofins-Panlabs selectivity data (BI); settings: Compound concentration 10.0 uM

Chain of Epidermal growth factor receptor (Homo sapiens), P00533 [UNDEFINED MUTATION] (P00533 whole entry, looked up, stated change not applied): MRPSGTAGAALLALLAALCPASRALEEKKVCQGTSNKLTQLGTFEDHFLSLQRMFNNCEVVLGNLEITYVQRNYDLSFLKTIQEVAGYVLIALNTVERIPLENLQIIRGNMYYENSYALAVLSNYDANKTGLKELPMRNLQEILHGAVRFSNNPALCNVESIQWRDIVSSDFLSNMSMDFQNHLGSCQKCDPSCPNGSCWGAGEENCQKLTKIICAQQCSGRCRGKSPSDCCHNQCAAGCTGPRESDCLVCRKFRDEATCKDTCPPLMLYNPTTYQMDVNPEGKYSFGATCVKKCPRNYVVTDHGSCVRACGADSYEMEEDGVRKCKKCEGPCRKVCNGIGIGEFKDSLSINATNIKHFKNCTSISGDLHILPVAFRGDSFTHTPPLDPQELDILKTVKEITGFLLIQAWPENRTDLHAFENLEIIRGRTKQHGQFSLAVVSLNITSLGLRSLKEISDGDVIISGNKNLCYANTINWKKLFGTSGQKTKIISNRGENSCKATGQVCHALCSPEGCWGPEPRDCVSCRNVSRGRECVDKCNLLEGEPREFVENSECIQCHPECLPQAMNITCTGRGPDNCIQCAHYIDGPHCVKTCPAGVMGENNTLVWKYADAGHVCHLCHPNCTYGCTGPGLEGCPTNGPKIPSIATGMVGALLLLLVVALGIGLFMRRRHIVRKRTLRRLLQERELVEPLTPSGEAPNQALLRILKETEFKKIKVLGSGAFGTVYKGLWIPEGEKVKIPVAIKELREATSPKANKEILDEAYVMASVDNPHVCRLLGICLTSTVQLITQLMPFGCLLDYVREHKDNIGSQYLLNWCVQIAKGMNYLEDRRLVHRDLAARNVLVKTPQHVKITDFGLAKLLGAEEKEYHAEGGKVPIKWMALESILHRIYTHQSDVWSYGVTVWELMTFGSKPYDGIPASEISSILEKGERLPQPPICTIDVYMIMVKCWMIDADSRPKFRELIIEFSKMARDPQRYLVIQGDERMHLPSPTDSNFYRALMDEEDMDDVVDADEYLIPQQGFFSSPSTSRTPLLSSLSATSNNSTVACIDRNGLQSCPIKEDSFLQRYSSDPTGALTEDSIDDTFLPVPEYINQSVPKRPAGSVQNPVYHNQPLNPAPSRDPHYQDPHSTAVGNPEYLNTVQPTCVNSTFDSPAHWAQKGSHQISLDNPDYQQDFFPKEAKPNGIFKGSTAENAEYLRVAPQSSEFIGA
Chain of Casein kinase I isoform alpha (Homo sapiens) (P48729 2-337 limits assumed): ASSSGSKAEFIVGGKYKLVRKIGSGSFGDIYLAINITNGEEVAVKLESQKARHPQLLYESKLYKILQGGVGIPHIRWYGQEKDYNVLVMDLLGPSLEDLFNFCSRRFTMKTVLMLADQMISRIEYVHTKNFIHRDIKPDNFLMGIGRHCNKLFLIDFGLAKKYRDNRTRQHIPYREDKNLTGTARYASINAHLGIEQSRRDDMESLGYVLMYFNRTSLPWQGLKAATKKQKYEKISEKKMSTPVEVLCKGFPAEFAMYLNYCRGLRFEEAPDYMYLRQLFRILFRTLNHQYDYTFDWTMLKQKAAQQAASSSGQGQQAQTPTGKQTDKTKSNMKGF
Chain of Mitogen-activated protein kinase 1 (Homo sapiens) (P28482 whole entry, canonical isoform): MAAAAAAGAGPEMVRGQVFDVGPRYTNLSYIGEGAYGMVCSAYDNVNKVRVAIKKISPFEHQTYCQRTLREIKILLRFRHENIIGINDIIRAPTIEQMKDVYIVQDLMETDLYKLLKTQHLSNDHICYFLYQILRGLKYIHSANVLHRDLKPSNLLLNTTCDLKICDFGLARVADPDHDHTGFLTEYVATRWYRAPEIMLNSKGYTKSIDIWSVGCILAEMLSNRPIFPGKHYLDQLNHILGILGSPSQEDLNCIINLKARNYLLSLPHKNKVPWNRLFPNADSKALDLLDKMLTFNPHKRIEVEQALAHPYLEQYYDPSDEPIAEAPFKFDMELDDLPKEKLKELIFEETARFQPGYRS
Chain of Estrogen receptor (Homo sapiens) (P03372 whole entry): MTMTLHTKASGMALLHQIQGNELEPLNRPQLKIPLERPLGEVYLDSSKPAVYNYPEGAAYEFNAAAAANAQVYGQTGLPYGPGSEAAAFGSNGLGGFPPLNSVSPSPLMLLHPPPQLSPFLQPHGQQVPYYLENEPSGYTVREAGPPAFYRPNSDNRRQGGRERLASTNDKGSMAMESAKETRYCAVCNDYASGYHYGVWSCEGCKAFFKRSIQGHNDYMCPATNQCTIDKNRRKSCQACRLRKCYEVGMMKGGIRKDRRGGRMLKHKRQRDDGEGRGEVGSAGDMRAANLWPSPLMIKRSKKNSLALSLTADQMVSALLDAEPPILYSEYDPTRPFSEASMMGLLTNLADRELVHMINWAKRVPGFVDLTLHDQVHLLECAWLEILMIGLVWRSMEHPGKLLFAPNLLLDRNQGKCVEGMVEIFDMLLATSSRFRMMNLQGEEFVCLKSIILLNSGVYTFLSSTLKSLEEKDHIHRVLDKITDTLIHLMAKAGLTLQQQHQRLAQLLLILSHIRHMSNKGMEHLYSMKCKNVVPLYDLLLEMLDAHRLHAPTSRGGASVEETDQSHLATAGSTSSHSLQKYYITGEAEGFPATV
Chain of Serine/threonine-protein kinase PAK 3 (Homo sapiens) (O75914 whole entry, looked up): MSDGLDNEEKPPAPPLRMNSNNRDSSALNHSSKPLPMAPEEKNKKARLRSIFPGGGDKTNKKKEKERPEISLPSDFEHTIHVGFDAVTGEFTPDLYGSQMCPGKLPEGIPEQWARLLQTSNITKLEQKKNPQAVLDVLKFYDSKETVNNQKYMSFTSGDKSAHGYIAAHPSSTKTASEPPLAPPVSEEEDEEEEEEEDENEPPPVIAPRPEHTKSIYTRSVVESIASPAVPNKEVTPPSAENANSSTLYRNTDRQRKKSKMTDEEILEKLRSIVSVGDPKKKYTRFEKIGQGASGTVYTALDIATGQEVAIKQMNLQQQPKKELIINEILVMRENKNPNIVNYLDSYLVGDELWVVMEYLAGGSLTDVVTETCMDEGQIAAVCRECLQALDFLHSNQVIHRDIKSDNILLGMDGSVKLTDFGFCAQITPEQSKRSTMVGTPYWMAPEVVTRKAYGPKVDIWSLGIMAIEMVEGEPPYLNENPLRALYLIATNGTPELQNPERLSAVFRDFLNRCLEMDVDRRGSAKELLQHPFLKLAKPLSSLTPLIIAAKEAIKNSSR
Chain of STE20-like serine/threonine-protein kinase (Homo sapiens) (Q9H2G2 whole entry, looked up): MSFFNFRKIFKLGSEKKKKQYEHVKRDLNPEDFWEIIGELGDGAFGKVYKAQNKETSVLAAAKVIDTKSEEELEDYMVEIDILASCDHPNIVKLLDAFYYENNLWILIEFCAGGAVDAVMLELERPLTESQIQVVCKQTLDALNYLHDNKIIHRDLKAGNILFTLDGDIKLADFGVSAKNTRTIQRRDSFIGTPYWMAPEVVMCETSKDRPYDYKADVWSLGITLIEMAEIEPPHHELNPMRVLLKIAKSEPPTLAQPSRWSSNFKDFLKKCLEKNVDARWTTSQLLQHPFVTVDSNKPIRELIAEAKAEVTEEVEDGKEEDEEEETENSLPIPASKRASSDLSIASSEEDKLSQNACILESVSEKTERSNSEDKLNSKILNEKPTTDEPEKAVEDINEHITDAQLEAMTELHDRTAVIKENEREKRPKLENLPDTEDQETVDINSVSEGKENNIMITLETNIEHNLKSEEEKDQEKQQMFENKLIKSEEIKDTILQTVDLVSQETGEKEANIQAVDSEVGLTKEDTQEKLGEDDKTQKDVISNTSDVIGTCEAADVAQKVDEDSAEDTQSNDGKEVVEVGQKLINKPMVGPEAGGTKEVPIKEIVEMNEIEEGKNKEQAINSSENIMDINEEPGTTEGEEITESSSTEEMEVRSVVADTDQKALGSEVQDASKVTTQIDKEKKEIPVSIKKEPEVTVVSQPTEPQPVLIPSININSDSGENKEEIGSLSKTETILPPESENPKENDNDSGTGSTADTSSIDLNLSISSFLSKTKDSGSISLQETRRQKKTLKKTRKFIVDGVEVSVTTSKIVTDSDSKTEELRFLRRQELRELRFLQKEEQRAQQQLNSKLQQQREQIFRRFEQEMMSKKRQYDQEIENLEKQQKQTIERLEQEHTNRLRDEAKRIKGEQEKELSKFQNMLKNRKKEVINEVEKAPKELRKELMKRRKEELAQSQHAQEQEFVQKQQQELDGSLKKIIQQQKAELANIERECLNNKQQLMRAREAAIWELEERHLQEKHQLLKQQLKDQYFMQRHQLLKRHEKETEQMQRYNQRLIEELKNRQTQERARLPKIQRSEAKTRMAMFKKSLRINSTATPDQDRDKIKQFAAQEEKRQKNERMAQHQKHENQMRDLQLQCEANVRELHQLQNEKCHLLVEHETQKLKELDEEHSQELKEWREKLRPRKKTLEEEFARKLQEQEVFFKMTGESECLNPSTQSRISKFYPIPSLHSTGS
Chain of Alpha-1D adrenergic receptor (Homo sapiens) (P25100 whole entry): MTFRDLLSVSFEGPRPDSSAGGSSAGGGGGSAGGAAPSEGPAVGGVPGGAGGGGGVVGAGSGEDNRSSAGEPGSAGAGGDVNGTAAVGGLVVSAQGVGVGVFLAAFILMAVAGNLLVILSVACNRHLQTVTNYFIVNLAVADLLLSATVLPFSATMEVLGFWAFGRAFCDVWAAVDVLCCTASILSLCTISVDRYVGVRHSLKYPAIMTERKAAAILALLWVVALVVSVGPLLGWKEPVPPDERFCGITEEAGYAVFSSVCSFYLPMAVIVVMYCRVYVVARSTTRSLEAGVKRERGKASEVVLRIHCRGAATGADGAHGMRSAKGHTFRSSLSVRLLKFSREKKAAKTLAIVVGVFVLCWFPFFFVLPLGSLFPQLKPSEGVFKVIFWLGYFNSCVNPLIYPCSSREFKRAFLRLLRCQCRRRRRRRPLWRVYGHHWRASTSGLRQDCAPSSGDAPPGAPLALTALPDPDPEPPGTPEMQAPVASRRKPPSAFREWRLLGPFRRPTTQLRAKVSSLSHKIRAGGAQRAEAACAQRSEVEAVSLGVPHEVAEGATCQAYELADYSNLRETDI

CN(C)C(=O)Cn1cc(-c2nc([C@@](C)(c3ccc(-c4cnc(N)nc4)cc3)C3CC3)no2)cn1 [BI 665915]
inactive: residual activity [1] 100% | residual activity [2] 96% | residual activity [3] 90.5% | residual activity [4] 99% | residual activity [5] 109% | residual activity [6] 100% | residual activity [7] 96% | residual activity [8] 111% | residual activity [9] 96.5% | residual activity [10] 98% | residual activity [11] 93.5% | inhibition [12] -3.06% | residual activity [13] 94.5% | residual activity [14] 109% | residual activity [15] 83% | residual activity [16] 101% | residual activity [17] 94% | residual activity [18] 94.5% | residual activity [19] 100%
